Measured values as given in paper PMC8484168 (Cancer Chemotherapy and Pharmacology, 2021).
pIC50: −log10 of the molar value.

Experiments:
[1] = system: breast cancer resistance protein (BCRP); parameters: method as in PMID 32129697; details: read-out: 50% inhibitory concentration (IC50) for BCRP; transfected cells; cited from earlier work
[2] = Safety: TEAEs, Arm B (rucaparib + oral contraceptives)
Protocol: (§1) Safety was assessed separately during the 3 treatment periods: before rucaparib dosing (day 1 to 5), rucaparib dosing alone (day 6 to 18), and rucaparib with and after probe drug (day 19 to 23). Safety and tolerability assessments were made based on adverse events (AEs), clinical laboratory results, vital signs, 12-lead electrocardiogram (ECG) measurements, body weight, physical examination, concomitant medication/procedures, and ECOG performance status. AEs were classified according to the Medical Dictionary for Regulatory Activities (MedDRA) classification system version 22.1 [17] and graded according to the Common Terminology Criteria for Adverse Events (CTCAE) version 4.03 [18].

[3] = Safety: TEAEs, Arm A (rucaparib + rosuvastatin); assay type: in vivo, human
Protocol: as §1

[4] = parameters: method as in PMID 29799676; details: all dosages 40–500 mg QD or 240–840 mg BID; cited from earlier work
CYP3A4 = system: CYP3A4; parameters: method as in PMID 32129697; details: human hepatocytes; cited from earlier work
[5] = Rucaparib steady-state trough plasma concentration (Cmin); assay type: in vivo, human; details: rucaparib 600 mg BID from day 5
From the text: This was a 2-part, phase 1, open-label, 2-arm DDI study in patients with advanced solid tumors. In Part 1 of the study, patients were screened for eligibility from day − 28 to − 2 and visited the study site from day − 1 to 23 (Fig. 1). […] To check steady-state plasma concentrations for rucaparib, a blood sample was collected prior to the dosing of rucaparib on days 5, 9, 11, 15, and 19–23.
Other PK parameters, calculated for the probe drugs, included half-life (t1/2), tmax, apparent total clearance of drug after oral administration (CL/F), and apparent volume of distribution during terminal phase (VZ/F). The PK parameter calculated for rucaparib at steady state was trough plasma concentration (Cmin). PK parameters were calculated by noncompartmental analysis using Phoenix WinNonlin, version 8.1 (Certara, Princeton, NJ).

CYP3As = system: CYP3As; parameters: method as in PMID 32129697; details: human liver microsomes, reversible inhibition; cited from earlier work
CYP3A = system: CYP3A; parameters: method as in PMID 30427584; details: patients with an advanced solid tumor; cited from earlier work

SMILES: CNCc1ccc(-c2[nH]c3cc(F)cc4c3c2CCNC4=O)cc1 [rucaparib]
- pIC50 [1]: 4.26
- Pharyngitis bacterial ([2]; Arm B, maximum severity 1): 1 (5.6) n (%)
- patients who experienced at least 1 TEAE ([2]; female, human, in vivo): 50.0%
- patients with TEAEs considered related to rucaparib ([2]; female, human, in vivo): 7 patients
- Abdominal discomfort ([2]; human, in vivo): 1 (5.6) n (%)
- Abdominal pain ([2]; human, in vivo): 1 (5.6) n (%)
- Accident ([2]; human, in vivo): 1 (5.6) n (%)
- Acute kidney injury ([2]; human, in vivo): 1 (5.6) n (%)
- Apathy ([2]; human, in vivo): 1 (5.6) n (%)
- Arthropod bite ([2]; human, in vivo): 1 (5.6) n (%)
- Ascites ([2]; human, in vivo): 1 (5.6) n (%)
- Aspartate aminotransferase increased ([2]; human, in vivo): 1 (5.6) n (%)
- Cerebrovascular accident ([2]; human, in vivo): 0 n (%)
- Diarrhea ([2]; human, in vivo): 0 n (%)
- Dysgeusia ([2]; human, in vivo): 2 (11.1) n (%)
- Erythema ([2]; human, in vivo): 0 n (%)
- General disorders and administration site conditions ([2]; human, in vivo): 1 (5.6) n (%)
- Headache ([2]; human, in vivo): 1 (5.6) n (%)
- Infections and infestations ([2]; human, in vivo): 1 (5.6) n (%)
- Injury, poisoning, and procedural complications ([2]; human, in vivo): 1 (5.6) n (%)
- Musculoskeletal and connective tissue disorders ([2]; human, in vivo): 1 (5.6) n (%)
- Musculoskeletal pain ([2]; human, in vivo): 1 (5.6) n (%)
- Nausea ([2]; human, in vivo): 1 (5.6) n (%)
- Onycholysis ([2]; human, in vivo): 1 (5.6) n (%)
- Peripheral swelling ([2]; human, in vivo): 1 (5.6) n (%)
- Psychiatric disorders ([2]; human, in vivo): 1 (5.6) n (%)
- Renal and urinary disorders ([2]; human, in vivo): 1 (5.6) n (%)
- Skin and subcutaneous tissue disorders ([2]; human, in vivo): 1 (5.6) n (%)
- Skin hemorrhage ([2]; human, in vivo): 1 (5.6) n (%)
- Somnolence ([2]; human, in vivo): 1 (5.6) n (%)
- Taste disorder ([2]; human, in vivo): 1 (5.6) n (%)
- Thrombocytopenia ([2]; human, in vivo): 0 n (%)
- Abdominal distension ([3]; maximum severity 1): 1 (5.9) n (%)
- Abdominal pain ([3]; maximum severity 1): 1 (5.9) n (%)
- Blood creatinine increased ([3]; maximum severity 1): 1 (5.9) n (%)
- Diarrhea ([3]; maximum severity 1): 2 (11.8) n (%)
- Dyspepsia ([3]; maximum severity 1): 1 (5.9) n (%)
- Electrocardiogram QT prolonged ([3]; maximum severity 1): 1 (5.9) n (%)
- Gastrointestinal disorders ([3]; maximum severity 1): 3 (17.6) n (%)
- General disorders and administration site conditions ([3]; maximum severity 1): 1 (5.9) n (%)
- Infections and infestations ([3]; maximum severity 1): 1 (5.9) n (%)
- Investigations ([3]; maximum severity 1): 2 (11.8) n (%)
- Nasopharyngitis ([3]; maximum severity 1): 1 (5.9) n (%)
- Peripheral swelling ([3]; maximum severity 1): 1 (5.9) n (%)
- Reproductive system and breast disorders ([3]; maximum severity 1): 0 n (%)
- Total patients with events ([3]; maximum severity 1): 5 (29.4) n (%)
- Vaginal hemorrhage ([3]; maximum severity 1): 0 n (%)
- Vomiting ([3]; maximum severity 1): 0 n (%)
- Abdominal pain ([3]; maximum severity 2): 1 (5.9) n (%)
- Abdominal pain upper ([3]; maximum severity 2): 1 (5.9) n (%)
- Body temperature increased ([3]; maximum severity 2): 0 n (%)
- Cardiac disorders ([3]; maximum severity 2): 1 (5.9) n (%)
- Diarrhea ([3]; maximum severity 2): 1 (5.9) n (%)
- Dyspepsia ([3]; maximum severity 2): 0 n (%)
- Electrocardiogram QT prolonged ([3]; maximum severity 2): 0 n (%)
- Gastrointestinal disorders ([3]; maximum severity 2): 3 (17.6) n (%)
- General disorders and administration site conditions ([3]; maximum severity 2): 2 (11.8) n (%)
- Infections and infestations ([3]; maximum severity 2): 1 (5.9) n (%)
- Investigations ([3]; maximum severity 2): 0 n (%)
- Noncardiac chest pain ([3]; maximum severity 2): 1 (5.9) n (%)
- Peripheral swelling ([3]; maximum severity 2): 1 (5.9) n (%)
- Sinus tachycardia ([3]; maximum severity 2): 1 (5.9) n (%)
- Total patients with events ([3]; maximum severity 2): 5 (29.4) n (%)
- Urinary tract infection ([3]; maximum severity 2): 1 (5.9) n (%)
- Vomiting ([3]; maximum severity 2): 1 (5.9) n (%)
- Deep vein thrombosis ([3]; maximum severity 3): 1 (5.9) n (%)
- Total patients with events ([3]; maximum severity 3): 1 (5.9) n (%)
- Vascular disorders ([3]; maximum severity 3): 1 (5.9) n (%)
- Pulmonary embolism ([3]; maximum severity 4): 1 (5.9) n (%)
- Respiratory, thoracic, and mediastinal disorders ([3]; maximum severity 4): 1 (5.9) n (%)
- Total patients with events ([3]; maximum severity 4): 1 (5.9) n (%)
- TEAEs considered related to rucaparib by the investigator ([3]; rucaparib alone day 5 to 19, of 10 patients with TEAE): 3
- steady state of plasma rucaparib PK achieved by day [4]: ≤ 8 days
- CYP3A4 mRNA expression (CYP3A4): down-regulated
- CYP3A activities (CYP3A4): reduced
- days of continuous rucaparib dosing to steady state [5]: 4 days
- pIC50 (CYP3As): 4.64 to 4.76
- inhibition of CYP3A at steady state (CYP3A): weakly inhibited
